Data from publication PMC9848259 (Journal of Enzyme Inhibition and Medicinal Chemistry, 2023).

Assays:
ACHE and BACE-1A = target: T1, ACHE and BACE-1A (Homo sapiens, UniProt P22303+P56817); experiment: Yeast three-hybrid (Y3H) assay with β-galactosidase readout; assay type: cell-based, Saccharomyces cerevisiae; conditions: 10 µM ligand
T1 construct: the prepared pGBKT7-hACHE plasmid contained the cDNA fragment encoding for aa 52–577; obtained from the extracellular, N-terminal domain (aa 46–457) of BACE1A (GenBank: AF204943.1); host or cells: Saccharomyces cerevisiae Y2HGold (bait) mated with Y187 (prey)
Experimental: The Y3H method was used to analyse the possible hybrid-ligand induced interactions between five selected proteins. […]. Yeast codon optimisation was performed to facilitate high expression of human recombinant proteins in Saccharomyces cerevisae. The fragments for the signal peptide (aa 1–51) and domain responsible for protein tetramerization (aa 578–611) were obtained from the cDNA encoding for human ACHE (GenBank M55040.1). Therefore, the prepared pGBKT7-hACHE plasmid contained the cDNA fragment encoding for aa 52–577. […]
The yeast ẞ-galactosidase microplate assay protocol (stopped) was used to evaluate the ẞ-galactosidase activity in the yeast culture according to the manufacturer’s instructions. […] Optical density was measured at 660 nm and absorbance at 420 nm by a Synergy H1 spectrophotometer (Biotek). In the quantitative ẞ-galactosidase assay, the hybrid ligand 3e was used. […]

[1] = target: T2, BuChE (from equine serum) (Equus caballus, UniProt P81908); experiment: biochemical
T2 construct: purchased Sigma Aldrich; host or cells: equine serum
Experimental: The capacity of the novel cyclopentaquinoline hybrids to inhibit AChE (from the electric eel) and BuChE (from equine serum) were determined by the modified colorimetric Ellman’s method[38]^,[39]. Both enzymes, DTNB – Ellman’s reagent (5,5′-dithiobis-(2-nitrobenzoic acid)), acetyltiocholine iodide (ATCI) were obtained from Sigma Aldrich. AChE and BuChE samples in phosphate buffer (PBS) pH 8.0 were incubated in 96-well plates in the presence of the substrate (ATCI), 76 µl of DTNB and the tested compound at various concentration at room temperature for 10 min (AChE) or eight minutes (BuChE).

SHSY5Y cell = experiment: Toxicity towards SH-SY5Y cells (MTT); assay type: cell-based; conditions: 0.1–10 µM
Experimental: The SH-SY5Y (human neuroblastoma) (European Collection of Cell Culture) was chosen to determine the neuroprotective properties of the novel compounds. The Ham’s F12:EMEM (1:1) medium was used (Sigma Aldrich), comprising 15% Foetal Bovine Serum (Biowest), 2 mM Glutamine (Sigma Aldrich), 100 units/ml penicillin and […] (Biological Industries) and 1% Non-Essential Amino Acids (Biological Industries).
SH-SY5Y cells were seeded at a density of 5 × 10^3 cells/well in 96-well plates. The cells were cultured for 24 h (37 °C, 5% CO2). After 24 h of incubation, the medium was removed and cells were exposed to 100 µl of the compound at a range of concentrations, or of culture medium alone (blank control). After incubation, the medium was removed, washed with PBS and 50 µl of the MTT solution was added. The plates were then incubated for two hours (37 °C, 5% CO2). The MTT solution was then removed from the wells and 100 µl of DMSO was added. The plates were incubated for 10 min at room temperature and then 5 µl of Sorensen Buffer was added. The plates were swayed and the absorbance measured in a microplate reader (Synergy H1, BioTek, Winooski, VT, USA) at a wavelength of 570 nm. Cell viability was expressed as a percentage of control values (blank control). The experiments were done in triplicate.

T2 sequence (P81908 whole entry): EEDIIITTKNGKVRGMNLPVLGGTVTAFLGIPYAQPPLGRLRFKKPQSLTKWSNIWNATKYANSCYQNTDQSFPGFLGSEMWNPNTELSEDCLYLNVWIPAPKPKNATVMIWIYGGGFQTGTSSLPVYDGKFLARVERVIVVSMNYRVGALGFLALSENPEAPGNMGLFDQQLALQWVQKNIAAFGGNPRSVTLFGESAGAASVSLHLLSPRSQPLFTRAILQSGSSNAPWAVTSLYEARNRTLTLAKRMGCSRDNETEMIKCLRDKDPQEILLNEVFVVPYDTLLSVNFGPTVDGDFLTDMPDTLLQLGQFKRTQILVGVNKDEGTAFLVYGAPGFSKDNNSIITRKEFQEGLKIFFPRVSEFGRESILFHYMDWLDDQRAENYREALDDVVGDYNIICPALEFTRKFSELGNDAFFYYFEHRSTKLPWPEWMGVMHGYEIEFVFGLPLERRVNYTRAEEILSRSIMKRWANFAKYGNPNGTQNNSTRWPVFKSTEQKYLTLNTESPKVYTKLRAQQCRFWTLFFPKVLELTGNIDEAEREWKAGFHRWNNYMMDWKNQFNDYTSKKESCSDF
T1 sequence (P22303 52-577): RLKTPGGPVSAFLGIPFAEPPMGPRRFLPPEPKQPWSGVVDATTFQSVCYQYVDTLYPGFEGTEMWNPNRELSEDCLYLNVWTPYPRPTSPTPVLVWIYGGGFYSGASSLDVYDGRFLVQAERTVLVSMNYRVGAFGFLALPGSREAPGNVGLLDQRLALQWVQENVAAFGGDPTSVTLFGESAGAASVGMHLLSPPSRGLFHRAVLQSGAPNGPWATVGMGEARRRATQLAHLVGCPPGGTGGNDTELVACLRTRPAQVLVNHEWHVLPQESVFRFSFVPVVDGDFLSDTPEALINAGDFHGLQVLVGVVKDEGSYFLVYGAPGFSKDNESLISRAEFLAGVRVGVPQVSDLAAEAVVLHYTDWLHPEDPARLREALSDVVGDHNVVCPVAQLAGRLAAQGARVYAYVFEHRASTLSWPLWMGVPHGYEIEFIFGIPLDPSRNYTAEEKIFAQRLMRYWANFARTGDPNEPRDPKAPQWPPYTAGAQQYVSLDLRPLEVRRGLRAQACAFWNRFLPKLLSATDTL
T1 sequence (P56817 46-457): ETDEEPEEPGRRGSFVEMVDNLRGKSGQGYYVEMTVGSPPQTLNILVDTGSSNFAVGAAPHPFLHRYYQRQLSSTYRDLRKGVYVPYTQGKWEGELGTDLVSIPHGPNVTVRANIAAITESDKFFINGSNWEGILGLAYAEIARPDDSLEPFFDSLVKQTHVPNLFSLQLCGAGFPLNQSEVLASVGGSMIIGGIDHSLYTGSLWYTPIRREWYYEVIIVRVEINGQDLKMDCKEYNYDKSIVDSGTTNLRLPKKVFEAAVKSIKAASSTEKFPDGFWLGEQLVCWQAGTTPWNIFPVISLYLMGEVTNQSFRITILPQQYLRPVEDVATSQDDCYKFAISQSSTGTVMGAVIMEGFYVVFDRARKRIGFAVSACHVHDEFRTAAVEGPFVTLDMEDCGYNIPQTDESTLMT

O=C(NCCCCCCNc1c2c(nc3ccccc13)CCC2)c1cc(Cl)cc(Cl)c1 [Compound 3e]
β-galactosidase activity (strength of interaction) (ACHE and BACE-1A; 96 h, triplicate): 206.37 ± 4.85 units | hybrid ligand-mediated interaction of ACHE-BACE-1A protein pair (blue colonies) (ACHE and BACE-1A; DDO and QDO/X/A plates): yielded blue colonies | Selectivity for BuChE ([1]; IC50(AChE)/IC50(BuChE)): 1.13 | IC50 ([1]; means ± SD of three experiments): 116 ± 6 nM | toxicity towards SHSY5Y cell (SHSY5Y cell): non-toxic
